SMILES strings stand for the structures.

The text below walks through data of patent publication US8034811B2, “Hydroxamic acid esters and pharmaceutical use thereof” (Leo Pharma A/S, priority 2003, dated 2011).

The target in this assay is T1, human intracellular domain of KDR (VEGF Receptor-2) (Homo sapiens, UniProt P35968).
T1 construct: A fusion protein containing the intracellular domain (amino acids 793 to 1357) of the KDR and N-terminally tagged to GST; made in house; host or cells: Sf9 insect cells (baculovirus, pDEST20) for GST-KDR-cyt; E. coli BL21 (pGEX-4T-1) for GST-PLCγ
T1 sequence (P35968 794-1356 limits assumed): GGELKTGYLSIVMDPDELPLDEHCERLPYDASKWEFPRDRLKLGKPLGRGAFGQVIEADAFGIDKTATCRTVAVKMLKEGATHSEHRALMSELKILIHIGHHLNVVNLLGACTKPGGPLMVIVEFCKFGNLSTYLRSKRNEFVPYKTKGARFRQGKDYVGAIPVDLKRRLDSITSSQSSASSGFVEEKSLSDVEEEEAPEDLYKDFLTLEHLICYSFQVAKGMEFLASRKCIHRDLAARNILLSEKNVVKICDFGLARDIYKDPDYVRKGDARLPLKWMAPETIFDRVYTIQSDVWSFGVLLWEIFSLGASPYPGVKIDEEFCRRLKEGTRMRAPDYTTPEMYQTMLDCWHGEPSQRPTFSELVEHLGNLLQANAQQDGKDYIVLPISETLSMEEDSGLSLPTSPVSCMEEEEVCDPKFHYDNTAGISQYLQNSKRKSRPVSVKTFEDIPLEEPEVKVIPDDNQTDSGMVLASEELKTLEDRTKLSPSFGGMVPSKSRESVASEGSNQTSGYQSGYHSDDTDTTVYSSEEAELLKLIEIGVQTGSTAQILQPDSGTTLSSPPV
In words: In vitro KDR kinase assay. The format is biochemical. The following applies: IC50 as molar concentration; GST-KDR-cyt, substrate phospholipase Cγ, ATP 100 μM, 30 min room temperature, time-resolved fluorometry. How it is done:
The intracellular domain of the KDR receptor was used in the in vitro KDR assay. This domain contains the tyrosine kinase domain of KDR, and when expressed in Sf9 cells, this domain is constitutively active i.e. the kinase domain is phosphorylated on tyrosine residues.
The compounds to be tested were dissolved in DMSO at 10 mM, stored at −20° C. and protected from light. The maximum concentration of DMSO in the in vitro assay was 0.1%. Control samples received the same concentration of solvent as the samples treated with the test compounds.
For the kinase assays, black 96 wells MaxiSorp microtiter plates were coated by an overnight incubation with 100 μl/well of a 2.5 μg/ml solution of phospholipase Cγ in TBS buffer (40 mM Tris-HCl, pH 7.4, 20 mM Mg(C2H3O2)2, 0.02% NaN3) at 4° C. The plates were washed 3 times with TBS buffer containing 0.1% Tween-20, and the residual binding sites were masked by incubation with 1% BSA in TBS buffer containing 0.1% Tween-20 for 1 h. The plates were washed again and the test compounds were added at final concentrations up to 10 μM, together with ATP at the final concentration of 100 μM in 50 μl TBS buffer/well. Then, 50 μl of the human intracellular domain of KDR (VEGF Receptor-2) finally diluted 3000-3500 fold were added and were incubated for 30 min at room temperature. The plates were washed and 100 μl of the Europium labelled PY-20 anti-phosphotyrosine antibody (Wallac, FIN) were incubated in each well at the concentration of approximately 114 ng/ml for 2 h. Then, the plates were washed and 100 μl of enhancer solution (Wallac, FIN) were incubated in each well for 5 min in the dark. The plates were read in a Victor 1420 multilabel counter, using a Europium protocol for time-resolved fluorometry (Wallac, FIN): excitation 340 nm, emission 615 nm, sample pulse cycle 400 μs. Fluorescence was measured for 400 μs between flashes after a delay time of 400 μs. The background measured in the absence of enzyme was subtracted from all samples. The molar concentrations that inhibited 50% of the maximal enzymatic activity (IC50) were calculated from the dose-response curve, by fitting a straight line between the two concentrations immediately above and below the 50% inhibition point (i.e. by solving the equation y=a+bx).

With `O=C(NOCc1ccccc1I)c1cccnc1NCc1ccncc1` [Compound 160, N-(2-Iodo-benzyloxy)-2-[(pyridin-4-ylmethyl)-amino]-nicotinamide], the IC50 (in general, the concentration that inhibits the measured activity by half) is 63.1 nM.

With `CNC(=O)Nc1cc(CNc2ccccc2C(=O)NOCC2CCCCO2)ccn1` (centres unmarked) [compound 245], it took 7.94 nM to reach half-maximal inhibition (IC50). The figure for `O=C(NOCC1C[C@@H]2CC[C@H]1C2)c1ccccc1NCc1ccncc1` (stereo in doubt) [Compound 133, N-(Bicyclo[2.2.1]hept-2-ylmethoxy)-2-[(pyridin-4-ylmethyl)-amino]-benzamide] is 20 nM.

`N#Cc1ccc(CONC(=O)c2ccccc2NCc2ccnc(NC(=O)C3CC3)c2)cc1` [compound 226]: the IC50 is 6.31 nM. Then `O=C(NOCc1c(Cl)cccc1Cl)c1ccccc1NCc1ccncc1` [Compound 16, N-(2,6-Dichloro-benzyloxy)-2-[(pyridin-4-ylmethyl)-amino]-benzamide], with 25.1 nM; and `O=C(NOCc1ccccc1I)c1ccccc1NCc1ccncc1` [Compound 45, N-(2-Iodo-benzyloxy)-2-[(pyridin-4-ylmethyl)-amino]-benzamide], with 31.6 nM; and `O=C(NOCC1CC1)c1ccccc1NCc1ccncc1` [Compound 114, N-Cyclopropylmethoxy-2-[(pyridin-4-ylmethyl)-amino]-benzamide], with 100 nM. The figure for `O=C(NOCc1ccc(F)cc1C(F)(F)F)c1ccccc1NCc1ccncc1` [Compound 59, N-(4-Fluoro-2-trifluoromethyl-benzyloxy)-2-[(pyridin-4-ylmethyl)-amino]-benzamide] is 31.6 nM; for `COc1ccc(CNc2ccccc2C(=O)NOCc2ccc(C#N)cc2)cn1` [compound 237] it is 79.4 nM; for `O=C(NOCc1ccc2c(c1)OCO2)c1ccccc1NCc1ccncc1` [Compound 72, N-(Benzo[1,3]-dioxol-5-ylmethoxy)-2-[(pyridin-4-ylmethyl)-amino]-benzamide] it is 39.8 nM. The figure for `CNC(=O)Nc1cc(CNc2ccccc2C(=O)NOCc2ccc(C)c(F)c2F)ccn1` [Compound 213, N-(2,3-Difluoro-4-methyl-benzyloxy)-2-{[2-(3-methyl-ureido)-pyridin-4-ylmethyl]-amino}-benzamide] is 7.94 nM; for `O=C(NOCc1cc(Cl)nc(Cl)c1)c1ccccc1NCc1ccncc1` [Compound 104, N-(2,6-Dichloro-pyridin-4-ylmethoxy)-2-[(pyridin-4-ylmethyl)-amino]-benzamide] it is 63.1 nM. `O=C(NOCc1ccc(F)cc1)c1ccccc1NCc1ccc2c(c1)CCO2` [Compound 195, 2-[(2,3-Dihydro-benzofuran-5-ylmethyl)-amino]-N-(4-fluoro-benzyloxy)-benzamide] gave an IC50 of 79.4 nM.

With `O=C(NOCc1cccc(C(F)(F)F)c1)c1ccccc1NCc1ccncc1` [Compound 4, 2-[(Pyridin-4-ylmethyl)-amino]-N-(3-trifluoromethyl-benzyloxy)-benzamide], the 50% inhibitory concentration (IC50) is 200 nM.

Regarding `COC(=O)c1cccc(CONC(=O)c2ccccc2NCc2ccncc2)c1` [Compound 87, 3-{2-[(Pyridin-4-ylmethyl)-amino]-benzoylaminooxymethyl}-benzoic acid methyl ester], half-maximal inhibition (IC50) was put at 100 nM. The figure for `O=C(NOCc1ccc(Cl)cc1Cl)c1ccccc1NCc1ccncc1` [Compound 14, N-(2,4-Dichloro-benzyloxy)-2-[(pyridin-4-ylmethyl)-amino]-benzamide] is 6.31 nM; for `O=C(NOCc1ccc(Cl)c(Cl)c1)c1ccccc1NCc1ccncc1` [Compound 15, N-(3,4-Dichloro-benzyloxy)-2-[(pyridine-4-ylmethyl)-amino]-benzamide] it is 50.1 nM; for `O=C(NOCc1cccc2ccccc12)c1ccccc1NCc1ccncc1` [Compound 100, N-(Naphthalen-1-ylmethoxy)-2-[(pyridin-4-ylmethyl)-amino]-benzamide] it is 63.1 nM.

In turn, `N#Cc1ccc(CONC(=O)c2ccccc2NCc2ccncc2)c2ccccc12` [Compound 82, N-(4-Cyano-naphthalen-1-ylmethoxy)-2-[(pyridin-4-ylmethyl)-amino]-benzamide] had a half-maximal inhibitory concentration (IC50) of 15.8 nM. Then `Cc1nc(CONC(=O)c2ccccc2NCc2ccnc3ccccc23)cs1` [compound 232], with 20 nM; and `O=C(NOCc1cccc(F)c1)c1ccccc1NCc1ccncc1` [Compound 21, N-(3-Fluoro-benzyloxy)-2-[(pyridin-4-ylmethyl)-amino]-benzamide], with 25.1 nM; and `CC(C)CCONC(=O)c1ccccc1NCc1ccncc1` [Compound 118, N-(3-Methyl-butoxy)-2-[(pyridin-4-ylmethyl)-amino]-benzamide], with 15.8 nM.

Regarding `O=C(NOCc1ccccc1)c1ccccc1NCc1ccc2occc2c1` [Compound 198, 2-[(Benzofuran-5-ylmethyl)-amino]-N-benzyloxy-benzamide], it took 63.1 nM to reach half-maximal inhibition (IC50). In turn, `O=C(NOCC1CCCC1)c1ccccc1NCc1ccnc2ccccc12` [compound 233] gave an IC50 of 10 nM. Then `O=C(NOCc1cccc(OC(F)(F)F)c1)c1ccccc1NCc1ccncc1` [Compound 67, 2-[(Pyridin-4-ylmethyl)-amino]-N-(3-trifluoromethoxy-benzyloxy)-benzamide], with 50.1 nM; and `CCOC(=O)CNC(=O)Nc1cc(CNc2ccccc2C(=O)NOCC2CCCC2)ccn1` [compound 215], with 63.1 nM; and `CO[C@@H]1CCC[C@H](CONC(=O)c2ccccc2NCc2ccncc2)C1` (stereo in doubt) [Compound 131, N-(3-Methoxy-cyclohexylmethoxy)-2-[(pyridin-4-ylmethyl)-amino]-benzamide], with 39.8 nM. The figure for `COc1ccc(CNc2ccccc2C(=O)NOCc2ccc(C#N)cc2OC)cn1` [compound 235] is 63.1 nM; for `Cc1ccc(CONC(=O)c2ccccc2NCc2ccncc2)cc1F` [Compound 41, N-(3-Fluoro-4-methyl-benzyloxy)-2-[(pyridin-4-ylmethyl)-amino]-benzamide] it is 20 nM. `O=C(NOCc1ccccc1C#CCO)c1ccccc1NCc1ccncc1` [Compound 52, N-[2-(3-Hydroxy-prop-1-ynyl)-benzyloxy]-2-[(pyridin-4-ylmethyl)-amino]-benzamide]: the IC50 was 63.1 nM. Then `O=C(NOCc1ccccc1C(F)(F)F)c1ccccc1NCc1ccncc1` [Compound 5, 2-[(Pyridin-4-ylmethyl)-amino]-N-(2-trifluoromethyl-benzyloxy)-benzamide], with 31.6 nM; and `O=C(NOCCOc1ccccc1)c1ccccc1NCc1ccncc1` [Compound 30, N-(2-Phenoxy-ethoxy)-2-[(pyridin-4-ylmethyl)-amino]-benzamide], with 1000 nM. Then `COc1ccc(CONC(=O)c2ccccc2NCc2ccncc2)cc1` [Compound 7, N-(4-Methoxy-benzyloxy)-2-[(pyridin-4-ylmethyl)-amino]-benzamide], with 39.8 nM; and `O=C(NOCc1cc2c(cc1Cl)OCO2)c1ccccc1NCc1ccncc1` [Compound 71, N-(6-Chloro-benzo[1,3]dioxol-5-ylmethoxy)-2-[(pyridin-4-ylmethyl)amino]-benzamide], with 25.1 nM.

In turn, `O=C(NOCCC1CCCC1)c1ccccc1NCc1ccncc1` [Compound 126, N-(2-Cyclopentyl-ethoxy)-2-[(pyridin-4-ylmethyl)-amino]-benzamide] showed an IC50 of 7.94 nM.
